Experimental data: ChEMBL document CHEMBL3881528, “Macrocyclic Quinoxaline Compounds as HCV NS3 Protease Inhibitors” (2010)

Assays:
Plasma = experiment: Covalent protein binding in rat plasma at 25 to 75 […], po using radio-labeled compound measured at 6 hrs by scintillation counting method; type: ADME, organism-based
Liver = experiment: Covalent protein binding in rat liver at 25 to 75 […], po using radio-labeled compound measured at 6 hrs by scintillation counting method; type: ADME, organism-based; settings: in vivo
[1] = Drug level in dog liver at 5 mg/kg, po measured at 24 hrs by RP-HPLC method; type: ADME, organism-based, Canis lupus familiaris; settings: read-out: Drug uptake
[2] = Drug level in rat liver at 25 mg/kg, po measured at 24 hrs by RP-HPLC method; type: ADME, organism-based; settings: read-out: Drug uptake

SMILES | PB (Plasma) | PB (Liver) | concentration at 24 h [1] | concentration at 24 h [2]
C=C[C@@H]1C[C@]1(NC(=O)[C@@H]1C[C@@H]2CN1C(=O)[C@H](C(C)(C)C)NC(=O)O[C@@H]1CCC[C@H]1CCCCCc1nc3ccc(OC)cc3cc1O2)C(=O)NS(=O)(=O)C1CC1 | 6 pmolequiv/mg | 24 pmolequiv/mg |  | 
C=C[C@@H]1C[C@]1(NC(=O)[C@@H]1C[C@@H]2CN1C(=O)[C@H](C(C)(C)C)NC(=O)O[C@@H]1C[C@H]1CCCCCc1nc3ccc(OC)cc3cc1O2)C(=O)[N-]S(=O)(=O)C1CC1.[K+] |  |  | 3.3 µM | 8.5 µM
C=C[C@@H]1C[C@]1(NC(=O)[C@@H]1C[C@@H]2CN1C(=O)[C@H](C(C)(C)C)NC(=O)O[C@@H]1C[C@H]1CCCCCc1nc3ccc(OC)cc3nc1O2)C(=O)[N-]S(=O)(=O)C1CC1.[K+] | 3 pmolequiv/mg | 3 pmolequiv/mg | 120 µM | 27.9 µM

Further lines, results first:

PB (Plasma) | PB (Liver) | concentration at 24 h [1] | concentration at 24 h [2] | SMILES
15 pmolequiv/mg | 38 pmolequiv/mg |  |  | C=C[C@@H]1C[C@]1(NC(=O)[C@@H]1C[C@@H]2CN1C(=O)[C@H](C1CCCC1)NC(=O)O[C@@H]1CCC[C@H]1CCCCCc1nc3ccccc3nc1O2)C(=O)NS(=O)(=O)C1CC1
6 pmolequiv/mg | 63 pmolequiv/mg |  |  | C=C[C@@H]1C[C@]1(NC(=O)[C@@H]1C[C@@H]2CN1C(=O)[C@H](C1CCCC1)NC(=O)O[C@@H]1CCC[C@H]1CCCCCc1nc3ccccc3cc1O2)C(=O)NS(=O)(=O)C1CC1
